Legend:
[1] = parameters: method as in PMID 28940154; conditions: cited from earlier work
hCA I = hCA I (Homo sapiens, UniProt P00915); assay: Stopped flow CO2 hydrase assay, hCA I
Description: (§1) An Applied Photophysics stopped-flow instrument has been used for assaying the CA-catalysed CO2 hydration activity[11]. […] The uncatalysed rates were determined in the same manner and subtracted from the total observed rates. Stock solutions of inhibitor (0.1 mM) were prepared in distilled-deionised water and dilutions up to 0.01 nM were done thereafter with the assay buffer. […] The inhibition constants were obtained by non-linear least-squares methods using PRISM 3 and the Cheng–Prusoff equation, as reported earlier[12]^,[13] and represent the mean from at least three different determinations.

hCA II = hCA II (Homo sapiens, UniProt P00918); assay: Stopped flow CO2 hydrase assay, hCA II
Description: as §1

hCA IV = hCA IV (Homo sapiens, UniProt P22748); assay: Stopped flow CO2 hydrase assay, hCA IV
Description: as §1

hCA VA = hCA VA (Homo sapiens, UniProt P35218); assay: Stopped flow CO2 hydrase assay, hCA VA
Description: as §1

hCA VB = hCA VB (Homo sapiens, UniProt Q9Y2D0); assay: Stopped flow CO2 hydrase assay, hCA VB
hCA VB, sequence (Q9Y2D0 34-317): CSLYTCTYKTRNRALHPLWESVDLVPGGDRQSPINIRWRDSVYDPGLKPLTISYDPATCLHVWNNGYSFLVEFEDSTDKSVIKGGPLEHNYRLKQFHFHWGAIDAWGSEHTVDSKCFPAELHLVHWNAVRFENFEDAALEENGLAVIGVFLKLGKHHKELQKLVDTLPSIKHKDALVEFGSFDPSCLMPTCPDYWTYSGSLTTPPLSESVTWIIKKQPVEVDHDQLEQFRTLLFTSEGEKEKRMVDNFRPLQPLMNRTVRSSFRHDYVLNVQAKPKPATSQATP
Description: as §1

hCA VI = hCA VI (Homo sapiens, UniProt P23280); assay: Stopped flow CO2 hydrase assay, hCA VI
hCA VI, sequence (P23280 18-308): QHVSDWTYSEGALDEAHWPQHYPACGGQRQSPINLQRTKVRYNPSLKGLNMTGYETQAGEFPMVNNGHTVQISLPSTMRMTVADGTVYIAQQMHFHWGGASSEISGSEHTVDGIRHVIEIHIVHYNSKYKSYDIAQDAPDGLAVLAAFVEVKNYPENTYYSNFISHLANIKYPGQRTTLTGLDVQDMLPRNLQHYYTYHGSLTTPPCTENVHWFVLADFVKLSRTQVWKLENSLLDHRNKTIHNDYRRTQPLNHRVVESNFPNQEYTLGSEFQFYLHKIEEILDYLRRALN
Description: as §1

hCA IX = hCA IX (Homo sapiens, UniProt Q16790); assay: Stopped flow CO2 hydrase assay, hCA IX
Description: as §1

hCA III = hCA III (Homo sapiens, UniProt P07451); assay: Stopped flow CO2 hydrase assay, hCA III
hCA III, sequence (P07451 whole entry): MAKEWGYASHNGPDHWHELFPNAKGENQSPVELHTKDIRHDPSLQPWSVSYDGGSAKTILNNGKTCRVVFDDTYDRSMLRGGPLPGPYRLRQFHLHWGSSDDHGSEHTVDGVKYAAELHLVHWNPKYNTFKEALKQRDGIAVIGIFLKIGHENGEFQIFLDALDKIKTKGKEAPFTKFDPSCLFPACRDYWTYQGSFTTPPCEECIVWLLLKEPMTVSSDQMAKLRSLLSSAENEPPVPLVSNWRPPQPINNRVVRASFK
Description: as §1

hCA VII = hCA VII (Homo sapiens, UniProt P43166); assay: Stopped flow CO2 hydrase assay, hCA VII
hCA VII, sequence (P43166 whole entry): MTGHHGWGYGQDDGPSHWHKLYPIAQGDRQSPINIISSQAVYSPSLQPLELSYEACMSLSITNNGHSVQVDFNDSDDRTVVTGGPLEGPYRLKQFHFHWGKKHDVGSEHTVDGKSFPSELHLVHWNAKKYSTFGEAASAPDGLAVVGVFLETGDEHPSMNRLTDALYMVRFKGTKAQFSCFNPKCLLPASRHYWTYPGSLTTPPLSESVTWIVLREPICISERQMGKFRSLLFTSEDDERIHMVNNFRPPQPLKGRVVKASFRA
Description: as §1

hCA XII = hCA XII (Homo sapiens, UniProt O43570); assay: Stopped flow CO2 hydrase assay, hCA XII
hCA XII, sequence (O43570 25-354): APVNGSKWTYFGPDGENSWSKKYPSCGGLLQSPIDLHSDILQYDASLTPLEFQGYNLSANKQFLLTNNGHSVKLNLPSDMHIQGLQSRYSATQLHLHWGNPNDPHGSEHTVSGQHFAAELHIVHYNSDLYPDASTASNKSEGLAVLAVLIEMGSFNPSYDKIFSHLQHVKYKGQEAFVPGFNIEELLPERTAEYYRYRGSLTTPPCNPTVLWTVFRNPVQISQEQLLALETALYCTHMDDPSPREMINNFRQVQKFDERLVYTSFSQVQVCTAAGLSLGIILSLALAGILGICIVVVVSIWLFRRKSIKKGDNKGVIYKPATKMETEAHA
Description: as §1

hCA XIV = hCA XIV (Homo sapiens, UniProt Q9ULX7); assay: Stopped flow CO2 hydrase assay, hCA XIV
hCA XIV, sequence (Q9ULX7 16-337): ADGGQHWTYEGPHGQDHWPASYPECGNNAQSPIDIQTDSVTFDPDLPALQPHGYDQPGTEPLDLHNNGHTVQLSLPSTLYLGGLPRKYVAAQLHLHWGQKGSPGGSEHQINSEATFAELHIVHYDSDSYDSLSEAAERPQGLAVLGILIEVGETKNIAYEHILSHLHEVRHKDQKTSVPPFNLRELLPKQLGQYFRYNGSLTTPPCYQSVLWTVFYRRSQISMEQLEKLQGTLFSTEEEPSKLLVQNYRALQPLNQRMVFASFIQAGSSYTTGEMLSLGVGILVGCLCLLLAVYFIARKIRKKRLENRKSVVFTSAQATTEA
Description: as §1

hCA XIII = hCA XIII (Homo sapiens, UniProt Q8N1Q1); assay: Stopped flow CO2 hydrase assay, hCA XIII
hCA XIII, sequence (Q8N1Q1 whole entry): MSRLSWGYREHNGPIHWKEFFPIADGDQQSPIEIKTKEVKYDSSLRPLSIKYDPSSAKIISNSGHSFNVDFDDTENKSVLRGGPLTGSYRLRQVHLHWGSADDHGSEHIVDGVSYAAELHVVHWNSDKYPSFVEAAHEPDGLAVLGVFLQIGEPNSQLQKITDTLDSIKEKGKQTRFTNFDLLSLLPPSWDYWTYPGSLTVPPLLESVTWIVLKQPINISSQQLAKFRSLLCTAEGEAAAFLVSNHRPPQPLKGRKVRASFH
Description: as §1

HIV = conditions: compared to efavirenz, cited from earlier work

hCA IV, sequence (P22748 19-312): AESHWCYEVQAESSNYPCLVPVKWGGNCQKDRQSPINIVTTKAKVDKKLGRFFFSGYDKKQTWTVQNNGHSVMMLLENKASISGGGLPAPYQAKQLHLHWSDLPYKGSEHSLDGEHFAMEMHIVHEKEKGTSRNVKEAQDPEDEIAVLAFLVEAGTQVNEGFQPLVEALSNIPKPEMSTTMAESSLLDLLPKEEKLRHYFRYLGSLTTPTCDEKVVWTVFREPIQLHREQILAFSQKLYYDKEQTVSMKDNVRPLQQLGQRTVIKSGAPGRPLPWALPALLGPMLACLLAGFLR
hCA I, sequence (P00915 whole entry): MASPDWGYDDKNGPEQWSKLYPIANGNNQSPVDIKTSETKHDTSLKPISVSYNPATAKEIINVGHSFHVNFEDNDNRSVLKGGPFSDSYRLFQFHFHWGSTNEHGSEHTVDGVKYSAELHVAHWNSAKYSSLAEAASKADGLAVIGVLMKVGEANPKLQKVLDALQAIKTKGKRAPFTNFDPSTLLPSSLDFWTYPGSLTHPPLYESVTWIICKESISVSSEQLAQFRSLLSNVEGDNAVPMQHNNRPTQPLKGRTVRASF
hCA VA, sequence (P35218 39-305): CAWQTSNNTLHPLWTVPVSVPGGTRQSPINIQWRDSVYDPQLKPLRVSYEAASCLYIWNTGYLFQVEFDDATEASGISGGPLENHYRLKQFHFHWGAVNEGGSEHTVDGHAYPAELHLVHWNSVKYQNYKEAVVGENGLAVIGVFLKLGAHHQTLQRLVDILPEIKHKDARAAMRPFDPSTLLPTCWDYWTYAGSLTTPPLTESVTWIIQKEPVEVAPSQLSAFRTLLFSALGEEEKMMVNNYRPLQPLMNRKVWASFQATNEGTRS

Row | SMILES | t1/2 of elimination ([1]; elimination of active form) [h] | Ki (hCA I) [nM] | Ki (hCA II) [nM] | Ki (hCA IV) [nM] | Ki (hCA VA) [nM] | Ki (hCA VB) [nM] | Ki (hCA VI) [nM] | Ki (hCA IX) [nM] | Ki (hCA III) [nM] | Ki (hCA VII) [nM] | selectivity towards hCA VII over the majority of other hCA isoforms (hCA VII; from Ki values) | Ki (hCA XII) [nM] | Ki (hCA XIV) [nM] | Ki (hCA XIII) [nM] | t1/2 of conversion to VM1500A ([1]; conversion of prodrug to active form) [h] | tolerability and side effects (HIV; patients) | virologic response (viral load and HIV RNA reduction) (HIV; treatment-naive patients) | inhibition of hCA IV (in words) (hCA IV; stopped flow CO2 hydrase assay) | inhibition of hCA III (in words) (hCA III; stopped flow CO2 hydrase assay)
1 | N#Cc1cc(Cl)cc(Oc2c(Br)ccc(CC(=O)Nc3ccc(S(N)(=O)=O)cc3Cl)c2F)c1 [VM1500A] | > 120 | 514 | 35.5 | 158 | 537 | 221 | 125 | 72.1 | > 100000 | 9.7 | 1–2 orders of magnitude | 62.3 | 15.4 | 52.2 | – | – | – | – | –
2 | CCC(=O)NS(=O)(=O)c1ccc(NC(=O)Cc2ccc(Br)c(Oc3cc(Cl)cc(C#N)c3)c2F)c(Cl)c1 [elsulfavirine] | – | 52400 | 12500 | > 100000 | 4290 | 14200 | 5670 | 6650 | > 100000 | 2390 | – | – | 1960 | 4820 | ~2 | superior tolerability and fewer side effects | comparable to that of the patients treated with efavirenz | virtually no inhibition | virtually no inhibition
